Results on three compounds are retold here after US11608328B2, “Chemical probes to identify anti-mycobacterial MmpL3 inhibitors” (Creighton University, priority 2019, dated 2023).

In series [1] the test system is Mtb. The following applies: reported by Brown et al., Bioorg. Med. Chem. 2011; cited from earlier work.
Series [2] deals with MmpL3tb (MmpL3^WT) (Mycobacterium tuberculosis, UniProt P9WJV5). The class given is binding. The following applies: 50, 100 and 200 μM.
For series [3], the system named is MsmgΔmmpL3 expressing mmpL3tb S591I. The class given is cell-based, Mycobacterium smegmatis.
Series [4] has as its target purified MmpL3-GFP (Mycobacterium tuberculosis, UniProt P9WJV5). The class given is binding. The following applies: 2 μM Compound 2 with increasing inhibitor concentrations.
In series [5] the test system is MsmgΔmmpL3 expressing mmpL3tb S288T. The class given is cell-based, Mycobacterium smegmatis.
Series [6] deals with Mtb. Briefly: MIC values against Mtb used for the PMF assays. The following applies: against Mtb, FIG. 8 legend, read-out: MIC values. The class given is cell-based, Mycobacterium tuberculosis.
Series [7] has as its system MsmgΔmmpL3 expressing mmpL3tb G253E. The class given is cell-based, Mycobacterium smegmatis.
Series [8] relates to MsmgΔmmpL3 expressing mmpL3tb V684A. The class given is cell-based, Mycobacterium smegmatis.
Series [9] concerns MsmgΔmmpL3 expressing wild-type mmpL3tb. The series is described as follows: microbe, parasite or virus in culture. The class given is cell-based. The following applies: MmpL3 WT.
The subject of series [10] is MsmgΔmmpL3 expressing mmpL3tb Q372R. The class given is cell-based, Mycobacterium smegmatis.
Series [11] relates to transmembrane potential (ΔΨ) of intact Mtb H37Rv mc^26206 cells. The series is described as follows: Membrane potential measurement with DiOC2(3) in intact cells. The class given is cell-based, Mycobacterium tuberculosis.
Series [12] deals with MsmgΔmmpL3 expressing mmpL3tb L189R. The class given is cell-based, Mycobacterium smegmatis.
In series [13] the test system is MsmgΔmmpL3 expressing mmpL3tb L567P. The class given is cell-based, Mycobacterium smegmatis.
The target in series [14] is purified MmpL3tb protein (Mycobacterium tuberculosis, UniProt P9WJV5). Briefly: Surface Plasmon Resonance binding to immobilized MmpL3tb.
Chain of purified MmpL3tb protein (P9WJV5 whole entry): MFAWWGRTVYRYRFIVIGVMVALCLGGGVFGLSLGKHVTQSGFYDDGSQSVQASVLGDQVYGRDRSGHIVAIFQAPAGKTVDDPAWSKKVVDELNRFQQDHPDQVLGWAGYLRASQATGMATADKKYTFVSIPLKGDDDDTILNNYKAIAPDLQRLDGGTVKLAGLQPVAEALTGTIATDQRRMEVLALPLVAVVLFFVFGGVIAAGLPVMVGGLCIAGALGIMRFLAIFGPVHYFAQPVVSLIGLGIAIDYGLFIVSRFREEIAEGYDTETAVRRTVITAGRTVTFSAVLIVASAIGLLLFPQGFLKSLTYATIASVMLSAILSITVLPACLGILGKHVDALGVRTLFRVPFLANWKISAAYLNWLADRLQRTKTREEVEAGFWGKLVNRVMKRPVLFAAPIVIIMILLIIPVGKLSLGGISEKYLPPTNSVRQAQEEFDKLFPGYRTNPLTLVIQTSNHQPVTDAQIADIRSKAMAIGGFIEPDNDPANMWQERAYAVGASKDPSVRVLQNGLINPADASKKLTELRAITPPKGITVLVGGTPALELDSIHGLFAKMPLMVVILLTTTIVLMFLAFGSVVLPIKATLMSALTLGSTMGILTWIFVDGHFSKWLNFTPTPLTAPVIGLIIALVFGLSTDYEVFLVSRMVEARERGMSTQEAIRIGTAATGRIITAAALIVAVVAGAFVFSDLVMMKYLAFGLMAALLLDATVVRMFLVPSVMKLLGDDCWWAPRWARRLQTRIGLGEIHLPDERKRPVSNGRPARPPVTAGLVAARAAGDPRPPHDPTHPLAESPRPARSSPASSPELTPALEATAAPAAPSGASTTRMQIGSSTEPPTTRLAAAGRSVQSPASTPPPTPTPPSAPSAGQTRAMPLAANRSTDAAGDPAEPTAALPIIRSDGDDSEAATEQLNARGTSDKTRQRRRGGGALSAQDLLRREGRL
In series [15] the test system is MsmgΔmmpL3 expressing mmpL3tb V684W. The class given is cell-based, Mycobacterium smegmatis.
The subject of series [16] is MsmgΔmmpL3 expressing mmpL3tb V684I. The class given is cell-based, Mycobacterium smegmatis.
The test system of series [17] is MsmgΔmmpL3 expressing mmpL3tb F644Y. The class given is cell-based, Mycobacterium smegmatis.
For series [18], the system named is E. coli BL21(DE3) IMVs. The series is described as follows: Succinate-driven proton translocation assay (ACMA) in inverted membrane vesicles. The class given is biochemical. The following applies: 2 μg/mL. The protocol:
(§1) FIG. 19A: The reactions were initiated by adding 5 mM succinate. Upon stabilization of the signal, control compounds (INH, RIF, nigericin), the MmpL3 inhibitors or diluent (water, used for INH, or 0.2% DMSO, used for all other compounds) were added and proton translocation monitored fluorimetrically. MmpL3 inhibitors and controls were used at one and four times their MIC concentrations against Mtb. Shown are the averages and standard deviations (error bars) of triplicate measurements.
(§2) Succinate-driven proton translocation assays with the fluorescent substrate ACMA were conducted as previously described (see e.g., Li et al. J. Med. Chem. 2014, 57: 3126-3139) to determine the effect of MmpL3 inhibitors on the electrochemical proton gradient of Mtb H37Rv mc^26206 and E. coli BL21(DE3) IMVs. IMVs (0.18 mg/mL membrane proteins) were pre-incubated at 37° C. in 10 mM HEPES-KOH pH 7.5, 100 mM KCl, 5 mM MgCl2 containing 2 μM ACMA and the baseline monitored for 10 min with a fluorescence spectrophotometer (Victor X5, PerkinElmer). The reaction was then initiated by adding 5 mM succinate. Upon stabilization of the signal, control compounds (INH, RIF, nigericin), MmpL3 inhibitors, or diluent (0.2% DMSO or water) were added and proton translocation monitored fluorimetrically. The excitation and emission wavelengths were 410 nm and 480 nm, respectively.

Series [19] has as its system MsmgΔmmpL3 expressing mmpL3tb S591G. The class given is cell-based, Mycobacterium smegmatis.
For series [20] the following is noted: BLI assay buffer.
Series [21] has as its system Mtb H37Rv mc^26206 inverted membrane vesicles (IMVs). Briefly: Succinate-driven proton translocation assay (ACMA) in inverted membrane vesicles. The class given is biochemical, Mycobacterium tuberculosis. The following applies: one and four times MIC against Mtb. The protocol:
as §1, §2

Series [22] deals with MsmgΔmmpL3 expressing mmpL3tb T311I. The class given is cell-based, Mycobacterium smegmatis.
In series [23] the test system is transmembrane electrochemical proton gradient (ΔpH) of intact Mtb H37Rv mc^26206 cells. Briefly: Electrochemical proton gradient measurement with CMFDA in intact cells. The class given is cell-based, Mycobacterium tuberculosis.
The subject of series [24] is MsmgΔmmpL3 expressing mmpL3tb G253R. The class given is cell-based, Mycobacterium smegmatis.
Series [25] relates to MsmgΔmmpL3 expressing mmpL3tb S591W. The class given is cell-based, Mycobacterium smegmatis.
In series [26] the test system is MsmgΔmmpL3 expressing mmpL3tb LI89A. The series is described as follows: microbe, parasite or virus in culture. The class given is cell-based. The following applies: Table 2; mutant LI89A.
Series [27] deals with transfer of mycolic acids onto their cell envelope acceptors in MsmgΔmmpL3/pMVGH1-mmpL3tb. The class given is cell-based. The following applies: 3 hours.
In series [28] the test system is MsmgΔmmpL3 expressing mmpL3tb F644C/I/L. The class given is cell-based, Mycobacterium smegmatis.
For series [29], the system named is MsmgΔmmpL3 expressing mmpL3tb F644C. The class given is cell-based, Mycobacterium smegmatis.
Series [30] deals with MsmgΔmmpL3 expressing mmpL3tb G253W. The class given is cell-based, Mycobacterium smegmatis.
Series [31] concerns MsmgΔmmpL3 expressing mmpL3tb S309C. The class given is cell-based, Mycobacterium smegmatis.
In series [32] the target is MmpL3tb in MsmgΔmmpL3/pMVGH1-mmpL3tb cells (Mycobacterium tuberculosis, UniProt P9WJV5). The class given is cell-based.
Chain of MmpL3tb in MsmgΔmmpL3/pMVGH1-mmpL3tb cells (P9WJV5 whole entry, looked up, stated change not applied): as the sequence (P9WJV5 whole entry) above

≈ marks a conversion by molar mass, not a printed value. Where “and” joins values, the source holds several entries; their conditions need not be identical. Equal entries are not always repeated. Where two headings read alike, the source gives them in different places. Marks after values point to notes of the source that are not given here.

Chain of purified MmpL3-GFP (P9WJV5 whole entry): as above
Chain of MmpL3tb (MmpL3^WT) (P9WJV5 whole entry): as above

Regarding `COC(=O)c1ccc(NC(=O)NC23CC4CC(CC(C4)C2)C3)cc1O` [AU, methyl 1-(1-adamantyl)-3-(4-aminosalicylate)urea], the “Mtb MIC value” in series [1] is 0.4 mg/L.
For `Cc1c(CN2CCN(C)CC2)cc(-c2ccc(Cl)cc2)n1-c1ccc(Cl)cc1` [BM212], the BLI binding signal result in [2] is given as “only yielded weak binding signals”. The MIC in [3] was 25.0^b μg/mL and 16 μg/mL; in series [5], 25.0^b μg/mL; in [6], 3.76 µM (≈ 1.56 µg/mL); in series [7], 12.5 mg/L and 8 mg/L; in [8], 6.25 mg/L and 4 mg/L; in series [9] (Table 2), 4 mg/L (≈ 9.65 µM). The MIC in [9] (Tables 1A-1B) was 6.25 mg/L (≈ 15.1 µM); in series [10] it was 12.5 mg/L (≈ 30.2 µM); in series [12], 12.5 mg/L and 8 mg/L; in [13] it was 12.5 mg/L (≈ 30.2 µM); in series [15], 4 mg/L (≈ 9.65 µM); in [16], 2 mg/L (≈ 4.83 µM). In addition, the MIC in series [17] is 8 mg/L (≈ 19.3 µM); in series [19] it was 1^c μg/mL; in series [22], 12.5 mg/L (≈ 30.2 µM); in series [24], 8 mg/L (≈ 19.3 µM); in series [25], 4^c μg/mL; in series [26] it was 8 mg/L (≈ 19.3 µM). Moreover, the MIC amounted to 4 mg/L (≈ 9.65 µM) in [28], 3.13 mg/L (≈ 7.55 µM) in series [29], 8 mg/L (≈ 19.3 µM) in series [30] and 12.5 mg/L (≈ 30.2 µM) in series [31]. Moreover, in series [4], the “displacement of Compound 2 from purified MmpL3tb” value is “clear concentration-dependent displacement”. Moreover, the “effect on membrane potential (ΔΨ)” value in series [11] was “only showed an effect on ΔΨ at the highest concentration tested (8×MIC)”. Further, the ka2 in series [14] (SPR global fit) is recorded as 0.005 1/RU*s. In addition, the kd1 in [14] (SPR global fit) came to 1.67 s⁻¹. In [14] (SPR global fit), this compound had a kd2 of 0.0222 s⁻¹. Further, in series [14] (SPR global fit, HEPES-TX buffer with 5% DMSO), the ka1 stood at 1054.8 M⁻¹ s⁻¹. Moreover, the “Model (best-fit kinetic model)” value in series [14] (SPR sensorgrams fit globally) was “Two-state reaction”. Moreover, the Kd in series [14] (equilibrium dissociation constant calculated from the rate constants, read-out: KD1) is 1290 µM. In addition, the “effect on ΔpH of E. coli IMVs” value in series [18] is on record as “showed no such activity”. The “solubility limit in 5% DMSO” value in [20] turned out to be 50 µM (≈ 20.7 µg/mL). Further, the “effect on ΔpH of Mtb IMVs” value in [21] is “increase of fluorescence intensity indicative of ΔpH collapse”. Besides, in [23], the “effect on electrochemical proton gradient (ΔpH)” value is recorded as “collapsed ΔpH”. The “inhibition of transfer of mycolic acids to cell envelope acceptors” value in series [27] is “actually targeted MmpL3tb in the Msmg recombinant system”.
As to `NNC(=O)c1ccncc1` [INH, isoniazid], in [4], the “displacement of Compound 2 from purified MmpL3tb” value is given as “No significant displacement”. Also, the MIC in series [6] (Mycobacterium tuberculosis) is 0.58 µM (≈ 0.0795 µg/mL). Moreover, the “displacement of probe (Compound 1 or Compound 2) in intact cells” value in series [32] was “not observed”.
